Data published in ChEMBL document CHEMBL1138162, “Phenyl ureas of creatinine as mGluR5 antagonists. A structure-activity relationship study of fenobam analogues” (Bioorg Med Chem Lett, 2006).

Legend:
[1] = target: Metabotropic glutamate receptor 5 (Homo sapiens, UniProt P41594); test: Inhibition of glutamate-induced calcium influx in human mGluR5d by FLIPR; assay type: functional
[2] = target: Metabotropic glutamate receptor 5 (Rattus norvegicus, UniProt P31424); test: Displacement of [3H]MPEP from mGluR5d in rat brain membrane; assay type: cell membranes
Rattus norvegicus = species: Rattus norvegicus; test: Clearance in rat; assay type: ADME, organism-based; conditions: in vivo
Homo sapiens = species: Homo sapiens; test: Clearance in human; assay type: ADME, organism-based; conditions: in vivo

Sequence of Metabotropic glutamate receptor 5 (Homo sapiens, UniProt P41594) (P41594 whole entry): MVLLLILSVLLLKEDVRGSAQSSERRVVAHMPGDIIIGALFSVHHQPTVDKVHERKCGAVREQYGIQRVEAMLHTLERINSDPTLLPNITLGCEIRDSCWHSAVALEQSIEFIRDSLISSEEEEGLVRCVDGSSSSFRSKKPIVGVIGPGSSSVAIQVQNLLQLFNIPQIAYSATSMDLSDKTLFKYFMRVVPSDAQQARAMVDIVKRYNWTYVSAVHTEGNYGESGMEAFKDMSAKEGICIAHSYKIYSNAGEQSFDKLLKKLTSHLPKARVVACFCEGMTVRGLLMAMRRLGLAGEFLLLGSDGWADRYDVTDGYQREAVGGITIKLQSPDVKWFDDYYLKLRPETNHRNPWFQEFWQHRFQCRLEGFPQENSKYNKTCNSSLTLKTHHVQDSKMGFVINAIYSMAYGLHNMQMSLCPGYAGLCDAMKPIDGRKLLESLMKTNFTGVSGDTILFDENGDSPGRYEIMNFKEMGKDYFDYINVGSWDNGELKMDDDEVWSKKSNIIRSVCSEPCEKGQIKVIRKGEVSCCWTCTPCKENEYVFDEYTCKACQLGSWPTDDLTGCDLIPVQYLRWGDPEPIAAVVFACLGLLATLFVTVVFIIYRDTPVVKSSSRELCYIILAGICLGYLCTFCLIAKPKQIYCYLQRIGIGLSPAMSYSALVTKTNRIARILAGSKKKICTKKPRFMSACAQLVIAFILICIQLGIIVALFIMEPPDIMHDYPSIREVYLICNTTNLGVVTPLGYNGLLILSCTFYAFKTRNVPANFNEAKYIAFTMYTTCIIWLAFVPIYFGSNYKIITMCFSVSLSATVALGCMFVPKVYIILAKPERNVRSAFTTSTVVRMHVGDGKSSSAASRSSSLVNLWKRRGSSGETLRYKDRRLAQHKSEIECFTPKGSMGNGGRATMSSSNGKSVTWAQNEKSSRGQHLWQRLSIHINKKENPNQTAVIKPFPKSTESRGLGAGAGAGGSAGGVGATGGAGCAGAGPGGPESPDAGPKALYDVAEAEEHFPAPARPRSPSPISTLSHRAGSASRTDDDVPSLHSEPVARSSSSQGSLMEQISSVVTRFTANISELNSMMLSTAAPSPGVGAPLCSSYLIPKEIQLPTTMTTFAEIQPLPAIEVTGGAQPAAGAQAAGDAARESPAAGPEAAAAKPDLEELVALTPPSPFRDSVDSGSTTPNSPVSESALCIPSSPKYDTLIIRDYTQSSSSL
Sequence of Metabotropic glutamate receptor 5 (Rattus norvegicus, UniProt P31424) (P31424 whole entry): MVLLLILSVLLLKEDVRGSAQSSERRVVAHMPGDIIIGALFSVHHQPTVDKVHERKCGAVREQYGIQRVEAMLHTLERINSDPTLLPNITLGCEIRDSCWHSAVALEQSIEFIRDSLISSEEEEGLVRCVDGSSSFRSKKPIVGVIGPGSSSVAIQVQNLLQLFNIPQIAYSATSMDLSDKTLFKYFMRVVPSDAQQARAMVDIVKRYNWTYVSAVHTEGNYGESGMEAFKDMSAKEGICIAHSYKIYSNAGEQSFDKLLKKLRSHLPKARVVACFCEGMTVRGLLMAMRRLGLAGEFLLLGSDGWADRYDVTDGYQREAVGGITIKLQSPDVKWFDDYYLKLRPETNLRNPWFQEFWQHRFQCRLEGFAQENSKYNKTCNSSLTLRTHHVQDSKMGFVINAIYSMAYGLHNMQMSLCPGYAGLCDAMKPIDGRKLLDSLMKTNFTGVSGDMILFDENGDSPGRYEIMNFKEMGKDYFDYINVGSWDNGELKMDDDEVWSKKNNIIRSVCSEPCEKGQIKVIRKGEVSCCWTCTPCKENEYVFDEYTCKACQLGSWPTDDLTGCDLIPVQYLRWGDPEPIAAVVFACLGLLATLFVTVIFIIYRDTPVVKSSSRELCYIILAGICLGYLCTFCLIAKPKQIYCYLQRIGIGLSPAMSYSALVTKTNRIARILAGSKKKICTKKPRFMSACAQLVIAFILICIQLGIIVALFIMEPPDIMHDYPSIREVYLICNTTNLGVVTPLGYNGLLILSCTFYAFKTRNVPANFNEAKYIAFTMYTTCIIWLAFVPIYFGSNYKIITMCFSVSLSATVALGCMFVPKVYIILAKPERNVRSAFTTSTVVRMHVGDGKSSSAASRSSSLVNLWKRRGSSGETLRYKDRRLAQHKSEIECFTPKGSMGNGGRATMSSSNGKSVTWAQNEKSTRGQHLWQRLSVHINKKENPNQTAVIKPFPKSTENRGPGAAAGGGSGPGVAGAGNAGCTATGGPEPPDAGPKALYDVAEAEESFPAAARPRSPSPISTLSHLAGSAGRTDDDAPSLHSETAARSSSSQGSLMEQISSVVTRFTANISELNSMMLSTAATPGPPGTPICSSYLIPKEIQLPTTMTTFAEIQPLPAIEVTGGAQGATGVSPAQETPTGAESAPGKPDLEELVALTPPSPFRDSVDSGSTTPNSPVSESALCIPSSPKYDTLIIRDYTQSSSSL

Row | IC50 ([1]; read-out: IC50) [µM] | IC50 [2] [µM] | SMILES | further results
1 | > 10 |  | COC(=O)c1cccc(NC(=O)NC2=NC(=O)CN2C)c1 | 
2 | > 10 |  | Cc1ccccc1NC(=O)NC1=NC(=O)C2CCCN12 (stereo not given) | 
3 | 2.3 |  | CN1CC(=O)N=C1NC(=O)c1cccc(Cl)c1 | 
4 | 3.1 |  | Cc1ccc(NC(=O)NC2=NC(=O)CN2C)nc1 | 
5 | > 10 |  | Cc1ccc(C)c(NC(=O)NC2=NC(=O)C3CCCN23)c1 (stereo not given) | 
6 | 2.8 |  | COc1cccc(NC(=O)NC2=NC(=O)CN2C)c1 | 
7 | > 10 |  | CCCCCCNC(=O)NC1=NC(=O)CN1C | 
8 | 0.68 | 1.3 | CCCCN1CC(=O)N=C1NC(=O)Nc1cccc(Cl)c1 | 
9 | > 10 |  | Cc1cccc(NC(=O)NC2=NC(=O)C3CCCN23)c1C (stereo not given) | 
10 | > 10 | > 10 | Cn1ccnc1NC(=O)Nc1cccc(Cl)c1 | 
11 | 0.41 | 0.32 | CCN1C(NC(=O)Nc2cccc(Cl)c2)=NC(=O)C1C (stereo not given) | 
12 | 0.62 | 2 | CN1CCC/C1=N\C(=O)Nc1cccc(Cl)c1 | 
13 | > 10 |  | Cc1cccc(C)c1NC(=O)/N=C1\CCCN1C [XILOBAM] | 
14 | 1.9 |  | Cc1cccnc1NC(=O)NC1=NC(=O)CN1C | 

Continued, molecule first:

Row | SMILES | IC50 ([1]; read-out: IC50) [µM] | IC50 [2] [µM] | further results
15 | O=C(NC1=NC(=O)C2CCCN12)Nc1ccccc1 (stereo not given) | 4.2 |  | 
16 | O=C(NC1=NC(=O)C2CCCN12)Nc1ccc(Cl)cc1 (stereo not given) | > 10 |  | 
17 | CN1CC(=O)N=C1NC(=O)Cc1cccc(Cl)c1 |  |  | IC50 [1]: Not Active
18 | O=C(NC1=NC(=O)C2CCCN12)Nc1cccc(Cl)c1 (stereo not given) | 0.8 | 1.6 | 
19 | CN1CC(=O)N=C1NC(=O)Nc1cc(Cl)cc(Cl)c1 | > 10 |  | 
20 | CN1CC(=O)N=C1NC(=O)Nc1cccc(C#N)c1 | 3.9 | 3.4 | 
21 | CN1CC(=O)N=C1NC(=O)Nc1cccs1 | 4.9 |  | 
22 | CN1CCS/C1=N\C(=O)Nc1cccc(Cl)c1 | 0.26 | 1.2 | 
23 | CN1C(=O)CN=C1NC(=O)Nc1cccc(Cl)c1 | > 10 | > 10 | 
24 | CN1CC(=O)N=C1NC(=O)Nc1cccc(Br)c1 | 0.38 |  | 
25 | CC1C(=O)N=C(NC(=O)Nc2cccc(Cl)c2)N1C (stereo not given) | 0.49 | 1.3 | 
26 | CN1CC(=O)N/C1=N\C(=O)Nc1ccccc1 | 4.9 |  | 
27 | CCN1CC(=O)N=C1NC(=O)Nc1cccc(Cl)c1 | 0.25 | 0.18 | 
28 | Cc1cccc(NC(=O)NC2=NC(=O)CN2C)c1 | 0.55 |  | 
29 | Cc1cccc(NC(=O)NC2=NC(=O)C(c3ccccc3)N2C)c1 (stereo not given) | 1.4 | > 10 | 
30 | Cc1ccc(NC(=O)NC2=NC(=O)C3CCCN23)cc1Cl (stereo not given) | > 10 |  | 
31 | CN1CC(=O)N=C1NC(=O)Nc1cccc(Cl)c1 [FENOBAM ANHYDROUS] | 0.33 | 0.46 | CL (Rattus norvegicus): 50 µL/min/mg; CL (Homo sapiens): 50 µL/min/mg
